# Reference: ChEMBL document CHEMBL1157539, “Thousands of chemical starting points for antimalarial lead identification” (Nature, 2010)
# Tested on: Plasmodium falciparum
# Test: GSK_TCMDC: Inhibition of Plasmodium falciparum 3D7 in whole erythrocytes, using parasite LDH activity as an index of growth.
# Format: functional, organism-based
# Conditions: not given
row,SMILES,XC50 [nM]
1,CC1=C(C(=O)NC2CCC(CN3CCC(c4c[nH]c5ccccc45)CC3)CC2)Cc2ccccc21 (configuration not stated),833

# Same assay, conditions: Plasmodium falciparum, 3D7
row,SMILES,XC50 [nM]
1,COc1ccccc1CNC(=O)c1cc(Br)cc(N2CCN(c3ccncc3)CC2)c1,946
2,CCc1cccc2c(C#N)cn(CC(=O)Nc3ccc(OC)cc3)c12,772
3,CCCCCCN1CCC(NCc2ccc(Cl)cc2)CC1,854
4,Cc1cc(OCC2CCCO2)c2cc(NC(=O)C(=O)Nc3ccc4nc(C)cc(OCC5CCCO5)c4c3)ccc2n1 (configuration not stated),804
5,Oc1ccc(CCCNc2nc(NCc3ccccc3-c3ccccc3)nc(N3CCNCC3)n2)cc1,713
6,Cc1cc(N/N=C/c2ccccc2[N+](=O)[O-])c2ccccc2n1,776
7,Cc1ccc(C(=O)N2CCN(Cc3nccs3)CC2)cc1,1010
8,CC(C)CCNC(=N)c1ccc(OCCCCCOc2ccc(C(=N)NCCC(C)C)cc2)cc1,534
9,Cc1nc(N)nc(N)c1-c1ccc(Br)c([N+](=O)[O-])c1,201
10,N#Cc1cccc(NC(=O)Nc2cccc(-c3cccc(-c4nc5cc(F)ccc5[nH]4)c3)c2)c1,225
11,Cc1ccccc1C1CCN(C2CCC(NC(=O)/C=C/c3ccc(F)c(F)c3)CC2)CC1 (configuration not stated),945
12,CCCNCc1ccc(-c2ccc(CN(CCOC)C(=O)Cc3cccnc3)cc2)nc1,823
13,c1cc(CN2CCCCC2)cc(-c2ccc(-c3nc4ccccc4[nH]3)cc2)c1,889
14,COc1cc(-c2nnc(SCC(=O)Nc3cc(C)on3)n2C)cc(OC)c1O,177
15,Cc1nc2nc(N)nc(N)c2c(C)c1Cc1ccccc1,248
16,Fc1cccc(CNc2ncc(-c3ccsc3)c(-c3nccs3)n2)c1,238
17,CCn1ccc2c(N3CCCCS3(=O)=O)cc(C(=O)N[C@@H](Cc3ccccc3)[C@H](O)CNC(C)(C)c3cccc(C(F)(F)F)c3)cc21,133
18,CCCc1ccc(S(=O)(=O)Nc2ccc3c(c2)CCC3)cc1,879
19,N#Cc1ccc(CN2CCC(Oc3ccc(NC(=O)c4ccccc4)cc3Cl)CC2)cc1,1260
20,O=C(NCCCCN1CCC(c2ccc(-c3ccco3)cc2)CC1)c1ccc(NC(=O)c2ccc(Cl)cc2)cc1,538
21,COc1ccc(-c2ccc(NC(=O)c3ccc(Cl)cc3)cc2)cc1CN(C)CCN(C)C,675
22,COC(=O)c1ccc(CCCNCC(O)c2cccc(C(F)(F)F)c2)cc1 (configuration not stated),803
23,O=C(C=Cc1cn(-c2ccccc2)nc1-c1ccccc1)N1CCN(c2ccncc2)CC1,965
24,COc1cc(-c2nc(-c3ccccc3)c(-c3ccccc3)[nH]2)ccc1OCCN(C)C,303
25,CN1CCOc2ccc(Nc3nnc(-c4cccc(-c5cccnc5)c4)o3)cc2C1,104
26,CC(C)CNC(=O)c1cncc(-c2ccc(CN3CCC(N4CCCC4)CC3)cc2)c1,689

row,SMILES,XC50 [nM]
1,COc1ccc(OCCCON)cc1,167
2,Cc1csc(-c2ccc3[nH]cc(C4=CCN(C)CC4)c3c2)n1,754
3,O=C(NC(c1ccc(Cl)cc1)c1ccc2cccnc2c1O)c1ccccc1 (configuration not stated),558
4,COc1ccc(-c2nonc2NC(=O)c2cccc(C)c2)cc1OC,806
5,COc1cc(OC)c(NC(=O)COc2ccc(C)cc2)cc1Cl,688
6,Cc1nc(C)c(-c2ccc(C(F)(F)F)cc2)c(O)c1Br,142
7,O=[N+]([O-])c1ccc(N/C(=N\c2ccccc2Br)NCCOc2ccccc2)c(O)c1,1050
8,Fc1ccccc1C=NN=c1cc[nH]c2ccc(C(F)(F)F)cc12,871
9,COc1ccc2c(c1)[nH]c1c(C=Cc3ccccc3)nccc12,379
10,N=C(N)Nc1nc(-c2cccc(NC(=O)CCCCCCCON3C(N)=NC(N)=NC34CCCCC4)c2)cs1,43.5
11,O=C(c1cc(C(=O)NC2CCCCC2)c(=O)n(C2CCCCC2)c1)c1cc(F)ccc1O,627
12,Cc1cc(N[C@@H](CC(C)C)C(=O)Nc2ccccc2)nc(NCCc2ccc(F)cc2)n1,1090
13,Nc1nc(N)c2nc(C3CC=CCC3)c(N)nc2n1 (configuration not stated),162
14,O=C1COC(c2ccccc2)(c2ccccc2)CN1CC1CCN(Cc2ccc(O)cc2Cl)C1 (configuration not stated),999
15,CC(C)(C)c1ccc(CN2CCC(NC(=O)c3ccc(-c4cccc(Cl)c4)s3)CC2)cc1,1070
16,Cc1ccc(C2CCN(CCCCNC(=O)c3ccc(-c4ccc(C(F)(F)F)cc4)cc3)CC2)c(O)c1,128
17,CC(=O)N1Cc2ccccc2C1=O,522
18,Fc1ccc2[nH]c(-c3ccc(-c4ccc(CNCc5cnn(-c6ccccc6)n5)cc4)cc3)nc2c1,540
19,COc1ccc(S(=O)(=O)N(CC(=O)NN=C(C)c2cccs2)c2cc(C)cc(C)c2)cc1OC,141
20,COc1ccc(NC(=O)c2c(NC(=O)c3cccs3)sc3c2CCCC3)cc1,448
21,CC[C@H](C)CNC(=O)c1cncc(-c2cccc(CNC3Cc4ccccc4C3)c2)c1,591
22,O=C(/C=C/c1cccs1)NC1CCC(CN2CCC(c3c[nH]c4ccccc34)CC2)CC1 (configuration not stated),1050
23,CCCCCC(C)N/C(=N/c1ccccc1Br)Nc1ccc([N+](=O)[O-])cc1O (configuration not stated),615
24,O=C(/C=C/c1cc(C(F)(F)F)ccc1F)NC1CCC(CN2CCC(c3c[nH]c4ccccc34)CC2)CC1 (configuration not stated),818
25,Cc1cc(NCc2ccccc2)nc2cc(O)ccc12,784
26,COc1cccc(CNC(=O)c2ccnc(-c3ccc(CNCCOc4ccccc4)cc3)c2)c1,1200

row,SMILES,XC50 [nM]
1,N=C(N)Nc1ccc(OCCCCCOc2ccc(NC(=N)N)cc2Br)c(Br)c1,262
2,Cc1ccc2c(O)c([N+](=O)[O-])c(O)nc2c1,422
3,Cc1cc(OC(C)C(=O)N2CCc3ccccc32)ccc1Cl (configuration not stated),785
4,CC(C)C[C@@H](/C=N/N1CCNC1=O)NC(=O)[C@H](CC(C)C)NC(=O)c1ccc(OCCN2CCOCC2)cc1,190
5,Cc1cc(NCC(c2ccccc2)c2ccccc2)nc(NCC2CCCCC2)n1,507
6,COc1cccc2sc(Nc3nc(-c4ccccn4)cs3)nc12,805
7,CN(C)CCN(C)Cc1ccc(-c2cccc(NC(=O)c3cccc(C#N)c3)c2)cc1,1180
8,O=C(NC1CCCCC1)c1ccc(O)c(-c2cccc(C(F)(F)F)c2)c1,712
9,Cc1cccc2nc(-c3cccc(-c4cccc(CN5CCC(CO)CC5)c4)c3)[nH]c12,724
10,Cc1cc(Cl)c(S(=O)(=O)NC2CCCC2)cc1OCC(=O)NC1CCCCC1,385
11,COc1ccc(C2C(C(=O)Nc3cc(OC)c(OC)c(OC)c3)c3cc(OC)c(OC)cc3C(=O)N2C)cc1 (configuration not stated),801
12,CCCOc1ccc(C(F)(F)F)cc1NC(=O)c1nc2nc(C)cc(C)n2n1,251
13,COc1ccc(Nc2nc(N3CCCC3)c3ccccc3n2)cc1,750
14,CC(CN(C)C)Oc1ccc2nc(-c3cccc(OCc4ccccc4)c3)[nH]c2c1C#N (configuration not stated),407
15,CN1CCN(CC(=O)Nc2cccc(-c3ccc(-c4nc5cc(C(F)(F)F)ccc5[nH]4)cc3)c2)CC1,520
16,COc1ccc(NC(=S)NC(NC(=O)CF)C(Cl)(Cl)Cl)cc1[N+](=O)[O-] (configuration not stated),479
17,CN(C)CCCn1cncc1-c1ccc2ncnc(Nc3ccc(OCc4ccccc4)cc3)c2c1,524
18,O=C(/C=C/c1ccc(Cl)c(Cl)c1)N1CCC2CC(N3CCC(c4c[nH]c5ccccc45)CC3)CCC2C1 (configuration not stated),171
19,Oc1ccc(CCNc2nc(NCCCOc3cc(CN4CCCCC4)ccc3F)nc(N3CCNCC3)n2)cc1,1760
20,O=C(Nc1cccc(-c2cc3ccccc3[nH]2)c1)C1CCN(Cc2ccccc2O)CC1,938
21,CCOc1cc(NCCCNc2ncc([N+](=O)[O-])cc2C)nc2ccccc12,692
22,CC(C)c1sc(N2CCN(C)CC2)nc1C(=O)NCCc1ccc(Cl)c(Cl)c1,1050
23,COc1cc2nccc(Nc3ccc(NC(=O)c4ccc(C)cc4)c(O)c3)c2cc1OC,174
24,OC1CCCN(Cc2ccc(-c3cccc(-c4nc5ccccc5[nH]4)c3)cc2)C1 (configuration not stated),1340
25,CC1=C(C(=O)NC2CCC(CN3CCC(c4c[nH]c5ccccc45)CC3)CC2)Cc2ccccc21 (configuration not stated),996
26,O=C(O)c1ccc(NC(=O)C2CC(=O)N(Cc3ccc(Cl)cc3)C(=Nc3ccc(Cl)cc3)S2)cc1 (configuration not stated),530

row,SMILES,XC50 [nM]
1,CCOC(=O)c1cc(C(=O)NCCCCN2CCC(c3ccc(CC)cc3OCC)CC2)ccc1-c1ccc(C(F)(F)F)cc1,615
2,CC(C)CNCc1cccc(-c2ccccc2CN(C(=O)Nc2ccccc2)C2CCN(Cc3ccccc3)CC2)c1,642
3,CC(=O)Nc1ccc(S(=O)(=O)N(Cc2cccc(Oc3ccccc3)c2)C2CCN(C/C=C(\C)CCC=C(C)C)CC2)cc1,192
4,Cc1cccc(OCC(=O)Nc2cccc(NC(=O)COc3cccc(C)c3)n2)c1,671
5,COc1ccc(CNC2CCN(C)CC2)cc1-c1ccc(S(=O)(=O)NC2CCC2)cc1,882
6,COc1cc(CN/C(=N/c2ccc(-c3ccccc3)cc2)Nc2ccc(C#N)cc2O)cc(OC)c1,718
7,CCCCCCNC(=O)C1Cc2c([nH]c3ccc(C)cc23)C2(CCN(Cc3ccccc3)CC2)N1 (configuration not stated),982
8,O=C(Nc1cccc(CN2CCCN(Cc3cccc(O)c3)CC2)c1)c1ccc(-c2ccccc2)cc1,641
9,CN(C)Cc1ccc(-c2ccc(NC(=O)c3ccc4c(=O)n(Cc5ccccc5)cnc4c3)cc2)cc1,647
10,CCOc1ccc2c(=NN=Cc3cccc(OC)c3OC)cc(C)[nH]c2c1,898
11,COc1ccc(CNC(=O)C2Cc3ccccc3CN2Cc2ccc3ccccc3c2)cc1 (configuration not stated),1100
12,CN1CCN(CCCN(Cc2ccc(-c3ccc(CNC4CCCC4)cc3)cc2)C(=O)CCC2CCCC2)CC1,886
13,Cc1cccc2nc(-c3cccc(-c4cccc(CNCC5CCCO5)c4)c3)[nH]c12 (configuration not stated),602
14,CCCN1CCN(c2ccccc2NS(=O)(=O)c2ccc(C(=O)Nc3ccc(Cl)cc3)cc2)CC1,1140
15,CC(=O)Nc1ccc(C(=O)Nc2cccc(-c3cccc(-c4nc5ccccc5[nH]4)c3)c2)cn1,204
16,CCCc1cc(C(C)=O)ccc1OCCCON1C(=N)N=C(N)NC1(C)C,4.57
17,c1cc(CN2CCN(c3ccncc3)CC2)cc(-c2cccc(-c3nc4ccccc4[nH]3)c2)c1,126
18,Cc1ccc(/C=C/C(=O)NCCCCCN2CCN(C(=O)Nc3ccc(Cl)c(C(F)(F)F)c3)CC2)cc1,1110
19,COc1cccc(CN2CCN(C(c3ccccc3)c3ccccc3)CC2)c1O,781
20,COc1cc(NC(=O)Nc2cc(C)nc3ccccc23)cc(OC)c1,396
21,COc1cc2ncnc(Nc3ccc(OCc4ccccc4)c(OCc4ccccc4)c3)c2cc1OC,738
22,Cc1cc(NC2CCN(Cc3ccccc3)CC2)nc(NCCCCc2ccccc2)n1,383
23,Cc1nc(-c2nc(NCCc3cnccn3)ncc2-c2ccsc2)sc1C,881
